Assay results taken from the supplement of paper PMC10883282.
Structures can show the parent of a compound that is named as a salt. ± gives the standard deviation of the averaged measurements.

Test system: RD
Experiment: relative viability vs DMSO control (72 h) (fraction); higher = more viable cells
How it was run: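 Sarcoma cell lines were seeded in 384-well plates at densities set to reach 80–90% confluence. After 24 h, 2.5 µl of serially diluted compound was added (source plates 10 mM to 0.0002 mM), and plates were held 72 h at 37 °C, 5% CO2, with 0.1% DMSO vehicle and a 5 µM positive control. Relative viability came from ATPLite readings as percent growth, averaged over up to triplicate wells. Data were rescaled so full viability equals 1 and none equals 0.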

Row | SMILES | relative viability (0.00017 µM) | relative viability (0.00051 µM) | relative viability (0.00152 µM) | relative viability (0.00457 µM) | relative viability (0.01372 µM) | relative viability (0.04115 µM) | relative viability (0.1235 µM) | relative viability (0.3704 µM) | relative viability (1.111 µM) | relative viability (3.333 µM) | relative viability (10 µM)
1 | CC(C)(C)c1cc(NC(=O)Nc2ccc(-c3cn4c(n3)sc3cc(OCCN5CCOCC5)ccc34)cc2)no1 [Quizartinib] | 1.08 ± 0.04 | 1.07 ± 0.036 | 1.08 ± 0.035 | 1.08 ± 0.06 | 1.07 ± 0.035 | 1.06 ± 0.025 | 1.07 ± 0.05 | 1.05 ± 0.055 | 1.04 ± 0.025 | 0.942 ± 0.1 | 0.922 ± 0.065
2 | CNC(=O)c1ccc(-c2cnc3ncc(Cc4ccc5ncccc5c4)n3n2)cc1F [Capmatinib] | 1.11 ± 0.025 | 1.1 ± 0.053 | 1.13 ± 0.037 | 1.15 ± 0.065 | 1.12 ± 0.028 | 1.12 ± 0.042 | 1.13 ± 0.077 | 1.14 ± 0.053 | 1.15 ± 0.072 | 1.13 ± 0.12 | 1.1 ± 0.1
3 | CC(C)N1CCN(Cc2cnc(-c3cc(-c4cccc5[nH]ccc45)cc4[nH]ncc34)o2)CC1 [Nemiralisib] | 0.931 ± 0.024 | 0.951 ± 0.017 | 0.916 ± 0.051 | 0.955 ± 0.025 | 0.941 ± 0.025 | 0.937 ± 0.011 | 0.964 ± 0.016 | 0.902 ± 0.028 | 0.83 ± 0.01 | 0.692 ± 0.053 | 0.128 ± 0.083
4 | C[C@@H](c1ccc2nccn2c1)n1nnc2ncc(-c3cnn(C)c3)nc21 [Volitinib] | 1.11 ± 0.027 | 1.11 ± 0.036 | 1.14 ± 0.03 | 1.12 ± 0.039 | 1.11 ± 0.022 | 1.1 ± 0.02 | 1.14 ± 0.016 | 1.14 ± 0.023 | 1.09 ± 0.017 | 1.07 ± 0.037 | 1.02 ± 0.037
5 | COc1c(OCCCN2CCOCC2)ccc2c1N=C(NC(=O)c1cnc(N)nc1)N1CCN=C21 [Copanlisib] | 1.07 ± 0.038 | 1.06 ± 0.032 | 1.07 ± 0.082 | 0.77 ± 0.053 | 0.741 ± 0.098 | 0.61 ± 0.01 | 0.438 ± 0.019 | 0.328 ± 0.011 | 0.268 ± 0.013 | 0.225 ± 0.014 | 0.184 ± 0.015
6 | CCN1CCN(Cc2ccc(Nc3ncc(F)c(-c4cc(F)c5nc(C)n(C(C)C)c5c4)n3)nc2)CC1 [Abemaciclib] | 1.12 ± 0.06 | 1.14 ± 0.056 | 1.09 ± 0.05 | 1.11 ± 0.054 | 1.1 ± 0.059 | 1.07 ± 0.081 | 1.06 ± 0.078 | 1.07 ± 0.036 | 1.1 ± 0.072 | 1.04 ± 0.049 | 0.863 ± 0.039
7 | C[C@]1(O)C[C@@H](c2nc(-c3ccc4ccc(-c5ccccc5)nc4c3)c3c(N)nccn32)C1 [Linsitinib] | 1.03 ± 0.04 | 1.09 ± 0.066 | 1.1 ± 0.047 | 1.06 ± 0.05 | 1.039 ± 0.0018 | 1.03 ± 0.035 | 0.875 ± 0.048 | 0.672 ± 0.0074 | 0.639 ± 0.028 | 0.633 ± 0.02 | 0.568 ± 0.0034
8 | Cc1ccc(NC(=O)c2ccc(CN3CCN(C)CC3)cc2)cc1Nc1nc(-c2cccnc2)cs1 [Masitinib] | 0.967 ± 0.042 | 0.962 ± 0.054 | 0.995 ± 0.039 | 1.03 ± 0.091 | 1.01 ± 0.096 | 0.995 ± 0.091 | 0.995 ± 0.1 | 0.976 ± 0.1 | 0.872 ± 0.074 | 0.587 ± 0.05 | 0.13 ± 0.02
9 | CN1CCN(c2ccc3nc(-c4c(N)c5c(F)cccc5[nH]c4=O)[nH]c3c2)CC1 [Dovitinib] | 0.963 ± 0.05 | 0.983 ± 0.064 | 0.991 ± 0.072 | 0.985 ± 0.053 | 0.978 ± 0.099 | 0.995 ± 0.074 | 0.998 ± 0.071 | 0.99 ± 0.072 | 0.812 ± 0.073 | 0.632 ± 0.05 | 0.113 ± 0.035
10 | CC(=O)Nc1cccc(-n2c(=O)n(C3CC3)c(=O)c3c(Nc4ccc(I)cc4F)n(C)c(=O)c(C)c32)c1 [Trametinib] | 1.08 ± 0.027 | 1.07 ± 0.064 | 0.971 ± 0.099 | 0.838 ± 0.044 | 0.669 ± 0.07 | 0.608 ± 0.051 | 0.584 ± 0.032 | 0.558 ± 0.038 | 0.556 ± 0.03 | 0.523 ± 0.04 | 0.477 ± 0.022
11 | C=CC(=O)N1CCC[C@@H](n2nc(-c3ccc(Oc4ccccc4)cc3)c3c(N)ncnc32)C1 [Ibrutinib] | 1.08 ± 0.04 | 1.11 ± 0.053 | 1.09 ± 0.032 | 1.13 ± 0.07 | 1.14 ± 0.063 | 1.12 ± 0.054 | 1.15 ± 0.062 | 1.15 ± 0.079 | 1.14 ± 0.083 | 1.13 ± 0.037 | 0.984 ± 0.058
12 | COc1cc2/c(=N/c3ccc(Br)cc3F)nc[nH]c2cc1OCC1CCN(C)CC1 [Vandetanib] | 1.1 ± 0.074 | 1.1 ± 0.066 | 1.09 ± 0.057 | 1.11 ± 0.081 | 1.1 ± 0.055 | 1.11 ± 0.088 | 1.04 ± 0.083 | 1.01 ± 0.061 | 0.96 ± 0.037 | 0.139 ± 0.017 | 0.0241 ± 0.0083
13 | C[C@@H]1COCCN1c1cc(-c2ccnn2C)c2ccnc(-c3ccn[nH]3)c2n1 | 1.08 ± 0.059 | 1.09 ± 0.027 | 1.09 ± 0.083 | 1.12 ± 0.065 | 1.1 ± 0.037 | 1.08 ± 0.046 | 0.93 ± 0.03 | 0.627 ± 0.025 | 0.378 ± 0.018 | 0.23 ± 0.017 | 0.188 ± 0.011
14 | COc1cccc2c1C(=O)c1c(O)c3c(c(O)c1C2=O)C[C@@](O)(C(=O)CO)C[C@@H]3O[C@H]1C[C@H](N)[C@H](O)[C@H](C)O1 [Doxorubicin Hydrochloride] | 1.12 ± 0.074 | 1.09 ± 0.068 | 1.12 ± 0.069 | 1.08 ± 0.072 | 1.1 ± 0.028 | 0.892 ± 0.011 | 0.556 ± 0.019 | 0.214 ± 0.015 | 0.0954 ± 0.008 | 0.0741 ± 0.0052 | 0.0196 ± 0.00075
15 | O=C(Nc1cnn2ccc(N3CCC[C@@H]3c3cc(F)ccc3F)nc12)N1CC[C@H](O)C1 [Larotrectinib] | 1.07 ± 0.035 | 1.092 ± 0.0046 | 1.09 ± 0.059 | 1.1 ± 0.05 | 1.11 ± 0.042 | 1.1 ± 0.11 | 1.13 ± 0.051 | 1.12 ± 0.073 | 1.13 ± 0.037 | 1.1 ± 0.068 | 1.09 ± 0.12
16 | Cc1cc(C)c(/C=C2\C(=O)Nc3ccccc32)[nH]1 [Semaxanib] | 1.07 ± 0.053 | 1.05 ± 0.042 | 1.06 ± 0.035 | 1.08 ± 0.016 | 1.08 ± 0.028 | 1.088 ± 0.0067 | 1.09 ± 0.037 | 1.09 ± 0.02 | 1.08 ± 0.023 | 1.06 ± 0.046 | 1 ± 0.041
17 | CC1(C)CNc2cc(NC(=O)c3cccnc3NCc3ccncc3)ccc21 [Motesanib] | 0.967 ± 0.013 | 0.964 ± 0.041 | 0.973 ± 0.046 | 0.96 ± 0.046 | 0.965 ± 0.04 | 0.989 ± 0.051 | 0.962 ± 0.032 | 0.975 ± 0.028 | 0.996 ± 0.056 | 1.03 ± 0.034 | 0.987 ± 0.066
18 | Cc1nc(-c2cn3c(n2)-c2ccc(-c4cnn(C(C)(C)C(N)=O)c4)cc2OCC3)n(C(C)C)n1 [Taselisib] | 1.11 ± 0.018 | 1.08 ± 0.041 | 1.07 ± 0.037 | 1.06 ± 0.036 | 1.03 ± 0.028 | 0.888 ± 0.027 | 0.687 ± 0.021 | 0.524 ± 0.017 | 0.444 ± 0.027 | 0.426 ± 0.0056 | 0.36 ± 0.026
19 | CC(C)NC(=O)C1CCC(n2c(NC(=O)c3ccc(F)cc3)nc3ccc(CN4CCC(C(C)(C)O)CC4)cc32)CC1 (centres undefined) [Belizatinib] | 1.1 ± 0.05 | 1.09 ± 0.06 | 1.08 ± 0.079 | 1.09 ± 0.02 | 1.09 ± 0.041 | 1.09 ± 0.025 | 1 ± 0.014 | 0.844 ± 0.058 | 0.456 ± 0.027 | 0.268 ± 0.0066 | 0.122 ± 0.011
